Results as given in US20100248272A1, “Method for identifying Smk box riboswitch modulating compounds” (Cornell University, priority 2009, published 2010).
Where “and” joins values, the source holds several entries; their conditions need not be identical. Equal entries are not always repeated. Entries after “also recorded” stand apart in the source; their conditions may differ.

How the values were obtained:
[1] = tested on: wild-type 15-118 metK leader RNA (bipartite, 2-AP at A29); test: Kd measurement by 2-AP fluorescence quenching; type: binding, E. faecalis; details: for quenching of 2-AP fluorescence: wild-type RNA
Procedure: (§1) FIG. 11. […] Increasing concentrations of SAM were added to bipartite metK leader RNA containing an internal 2-AP modification at residue A29. 2-AP fluorescence at steady-state was measured at 375 nm with an excitation wavelength of 310 nm. […] Percent quenching (ΔF/F0×100) represents the change in fluorescence normalized to the initial fluorescence observed in the absence of SAM.
(§2) For this, a bipartite RNA comprised of two half RNAs was used, which corresponds to positions 15-46 and 47-118. The two RNA halves are predicted to anneal through extensive base pairing in the P1-P3 helices to form the full-length metK leader RNA corresponding to positions 15-118, with a nick immediately upstream of residue G47 at the top of the P3 stein loop.
(§3) A 2-aminopurine (2-AP) modification was incorporated into the upstream RNA at residue A29 to monitor local conformational changes occurring at this position in response to SAM binding using florescence spectroscopy.

[2] = tested on: SMK box riboswitch; test: Competition binding assay SAM versus SAH; parameters: species or system E. faecalis; details: >100-fold excess of SAH over SAM
Description: FIGS. 6A, 6B. Effects of SMK box riboswitch mutagenesis on SAM binding and apparent SAM binding constant (Ka) determination. (A) Effects of mutation (with s.d.) on SAM binding by size-exclusion filtration assay, as described. (B) SAM and SAH Kd determination by competition binding assay.
(§4) The Kd value for the full-length SMK transcript was further confirmed by fluorescence-quenching assays, as described below and shown in FIG. 11.

[3] = tested on: E. faecalis metK-lacZ fusion C24G
Procedure: (§5) In this experiment, in vivo lacZ reporter gene assays were conducted as previously described (R. T. Fuchs, et al., 2006, Ibid. and R. T. Fuchs, et al., 2007, Ibid.). Enterococcus faecalis metK leader region constructs, which included the first 15 nt of the coding region, were positioned downstream of the highly expressed B. subtilis glyQS promoter. The resulting DNA fragment was inserted into a lacZ fusion vector (pFG328) to generate an in-frame metK-lacZ translational fusion in which the first five codons of metK were fused to codon 18 of lacZ. The constructs were introduced into the chromosome of B. subtilis strain BR151 (metB10 lys-3trpC2) by integration into an SPβ prophage. Bacillus subtilis strains containing the lacZ fusions were grown at 37° C. in Spizizen minimal medium containing methionine ([…]) until early exponential growth. The cells were harvested by centrifugation at 8,000 g and resuspended in Spizizen medium either with or without methionine, and samples were collected at 1-h intervals and assayed for β-galactosidase activity after toluene permeabilization of the cells.

[4] = tested on: E. faecalis metK-lacZ fusion A93C
Procedure: as §5

[5] = tested on: E. faecalis metK-lacZ fusion C24U + G91A
Procedure: as §5

[6] = tested on: E. faecalis metK-lacZ fusion C24U
Procedure: as §5

[7] = tested on: E. faecalis metK-lacZ fusion U22G
Procedure: as §5

[8] = tested on: E. faecalis metK-lacZ fusion C25U + G90A
Procedure: as §5

[9] = tested on: E. faecalis metK-lacZ fusion WT
Procedure: as §5

[10] = tested on: E. faecalis metK-lacZ fusion C25U
Procedure: as §5

[11] = tested on: E. faecalis metK-lacZ fusion U22G + A93C
Procedure: as §5

[12] = tested on: E. faecalis metK-lacZ fusion WT; details: cells grown in the presence of high methionine concentrations; previously shown; cited from earlier work
[13] = tested on: E. faecalis SMK box U22G A93C double mutant RNA; details: cited from earlier work
[14] = tested on: E. faecalis SMK box A93C mutant RNA; details: A93C mutation; cited from earlier work
[15] = tested on: U72C mutant metK leader RNA; test: 2-AP fluorescence quenching; type: binding, E. faecalis; details: SAM concentrations up to 100 μM
Procedure: as §1, §2, §3

[16] = tested on: E. faecalis SMK box U65 deletion mutant RNA; test: In vitro SAM binding assay (size-exclusion filtration)
Description: (§6) DNA templates corresponding to positions 15-118 (relative to the predicted transcription start site) of the E. faecalis metK leader were constructed by ligating overlapping pairs of complementary oligonucleotides, including a T7 RNA polymerase promoter sequence, as previously described (M. R. Yousef, et al., RNA, 9, 1148-1156 (2003) and B. A., McDaniel, et al., Mol. Microbiol., 57, 1008-1021 (2005)). Ligated products were amplified by PCR and RNAs were synthesized by T7 RNA polymerase transcription using an AmpliScribe T7 High Yield Transcription Kit (Epicentre Biotechnologies). RNAs (3 μM) in 1× transcription buffer (F. J. Grundy, et al., Nucleic Acids Res., 30, 1646-1655 (2002)) were heated to 65° C. for 5 minutes and slow-cooled to 40° C., followed by addition of radiolabeled SAM (3 μM [methyl-3H]-SAM, 15 Ci mmol^−1; GE Healthcare) in a total reaction volume of 40 μL, Binding reactions were incubated at room temperature (20-25° C.) for 15 minutes followed by passage through a Nanosep 10K Omega filter (Pall Life Sciences) by centrifugation at 14,000 g for 2.5 minutes. Filters were washed four times with 40 μL 1× transcription buffer to remove unbound SAM, and material retained by the filter was collected, mixed with Packard BioScience Ultima Gold scintillation fluid, and counted in a Packard Tri-Carb 2100TR liquid scintillation counter. No SAM was retained by the filter in the absence of RNA.

[17] = tested on: E. faecalis SMK box C76U G88A mutant RNA; test: as above; details: C76U and G88A combined
Description: as §6

[18] = tested on: E. faecalis SMK box G88A mutant RNA; test: as above; details: G88A mismatch mutation
Description: as §6

[19] = tested on: E. faecalis SMK box C76U mutant RNA; test: as above; details: C76U wobble mutation
Description: as §6

[20] = tested on: E. faecalis SMK box RNA with linker region replaced by poly(A)6; test: as above; details: 11-nt linker replaced with poly(A)6
Description: as §6

[21] = tested on: E. faecalis SMK box RNA with poly(A)6 linker and G88 and G89 mutated to adenosine; test: as above; details: poly(A)6 linker plus G88 and G89 to adenosine
Description: as §6

[22] = tested on: E. faecalis SMK box A73G mutant RNA; test: as above; details: A73G mutation
Description: as §6

[23] = tested on: E. faecalis SMK box G90A mutant RNA; test: as above; details: G90A mutation (C25•A90 mismatch)
Description: as §6

[24] = tested on: E. faecalis SMK box C24U G91A double mutant RNA; test: as above; details: C24U G91A double mutation
Description: as §6

[25] = tested on: E. faecalis SMK box C25U mutant RNA; test: as above
Description: as §6

[26] = tested on: E. faecalis SMK box C25U G90A double mutant RNA; test: as above; details: C25U G90A double mutation
Description: as §6

[27] = tested on: E. faecalis SMK box U72C mutant RNA; test: as above
Description: as §6

[28] = tested on: E. faecalis SMK box U65C mutant RNA; test: as above; details: U65C mutation
Description: as §6

[29] = tested on: E. faecalis SMK box C24G mutant RNA; test: as above; details: C24G mutation
Description: as §6

[30] = tested on: E. faecalis SMK box G26A mutant RNA; test: as above
Description: as §6

[31] = tested on: E. faecalis SMK box U22G mutant RNA; details: U22G mutation; cited from earlier work
[32] = target: full-length E. faecalis metK RNA (wild-type 15-118 metK leader sequence); test: Apparent Kd determination by size-exclusion filtration (modified SAM binding assay); details: full-length transcript, positions 15-118; [3H]-SAM
Procedure: (§7) The apparent equilibrium dissociation constants (Kd values) for the wild-type 15-118 metK leader sequence and the 53-nucleotide crystallization construct were determined using a modified SAM binding assay (J. Tomsic, et al., J. Bacteriol., 190, 823-833 (2007)). Briefly, T7 RNA polymerase transcribed RNA (1 μM) in 1× transcription buffer was refolded as described above and incubated with [^3H]-SAM ranging in concentration from 0.02 to 10 μM. Binding reactions were loaded onto Nanosep 3K Omega filters (Pall Life Sciences) and centrifuged briefly at 14,000 g to avoid large volume changes. The concentration of the RNA-[^3H]-SAM complex retained by the filter and the unbound SAM present in the flow through were determined by scintillation counting of known volumes, and nonlinear regression analyses were performed using Kaleida-Graph Version 3.51 (Synergy Software). Apparent Kd values represent the averages of at least two independent experiments for each construct with a margin of error≦5%.
as §4

[33] = tested on: 30S ribosomal subunit on the SMK box mRNA; test: Ribosome toeprinting analysis; type: biochemical; details: in the presence of ligand
[34] = target: SMK6 crystallization construct (53-nucleotide SMK box riboswitch); test: Apparent Kd determination by size-exclusion filtration (modified SAM binding assay); parameters: species or system E. faecalis; details: 53-nt crystallization construct SMK6; [3H]-SAM
Procedure: as §7, §4

[35] = Spizizen medium with methionine

With `Nc1ncnc2c1ncn2[C@@H]1O[C@H](CSCC[C@H](N)C(=O)O)[C@@H](O)[C@H]1O` [SAH, S-adenosyl-L-homocysteine] the “quenching of 2-AP fluorescence” value [1] was “not observed” and the “competition by unlabeled SAH” value [2] was “no competition”.
With `CSCC[C@H](N)C(=O)O` [Met, methionine] the “Ratio (−Met/+Met)” value [3] was 1.2, the “Expression of metK-lacZ fusion, +Met (β-galactosidase activity)” value (from here on “Expression of metK-lacZ fusion, +Met”) [3, 35] was 95 +/− 6.1 and the “Ratio (−Met/+Met)” value [4] was 1.8. For the same compound, the “Expression of metK-lacZ fusion, +Met” value [4, 35] was 42 +/− 1.0, the “Ratio (−Met/+Met)” value [5] was 1.5 and the “Expression of metK-lacZ fusion, +Met” value [5, 35] was 15 +/− 2.9. The “Ratio (−Met/+Met)” value [6] was 1.6, the “Expression of metK-lacZ fusion, +Met” value [6, 35] was 200 +/− 22 and the “Ratio (−Met/+Met)” value [7] was 1.4. The “Expression of metK-lacZ fusion, +Met” value [7, 35] was 160 +/− 13, the “Ratio (−Met/+Met)” value [8] was 0.95 and the “Expression of metK-lacZ fusion, +Met” value [8, 35] was 82 +/− 16. The “Ratio (−Met/+Met)” value [9] was 5.0, the “Expression of metK-lacZ fusion, +Met” value [9, 35] was 24 +/− 5.5 and the “Ratio (−Met/+Met)” value [10] was 2.8. The “Expression of metK-lacZ fusion, +Met” value [10, 35] was 80 +/− 5.0, the “Ratio (−Met/+Met)” value [11] was 4.4 and the “Expression of metK-lacZ fusion, +Met” value [11, 35] was 2.5 +/− 0.72. For the same compound, the “reduction in expression of lacZ reporter” value [12] was “five”.
For `C[S+](CC[C@H](N)C(=O)[O-])C[C@H]1O[C@@H](n2cnc3c(N)ncnc32)[C@H](O)[C@@H]1O` (some centres unmarked) [SAM, S-adenosyl methionine], the “SAM binding” value [13] is listed as “restores SAM binding”, the “SAM binding in vitro” value [14] is listed as “loss of SAM binding” and the “quenching of 2-AP fluorescence” value [15] is listed as “No quenching; also recorded: no substantial change in fluorescence”. For the same compound, the Kd ([1]; 2-AP fluorescence, excitation 310 nm, emission 375 nm, read-out: apparent Kd) was 1030 nM and 1000 nM, the “quenching of 2-AP fluorescence” value [1] was “concentration-dependent quenching” and the “decrease in SAM binding activity” value [16] was 20 fold. The “SAM binding, of the wild-type level” value [17] was 32%, the “reduction in SAM binding activity” value [18] was 75 fold and the “SAM binding activity retained” value [19] was 59%. For the same compound, the “SAM binding activity” value [20] was “did not affect”, the “SAM binding” value [21] was “dramatically reduced” and the “reduction in SAM binding activity” value [22] was 80 fold. For the same compound, the “SAM binding activity, of the wild type” value [23] was 1.3%, the “SAM binding” value [24] was “restored SAM binding” and the SAM binding activity ([25]; C25U mutation (U25-G90 wobble pair)) was 63%. The “SAM binding in vitro” value ([25]; C25U substitution) was “modest reduction”, the “SAM binding activity” value [26] was “loss of SAM binding activity” and the “SAM binding in the filtration assay” value ([27]; U72C RNA) was “loss of SAM binding”. For the same compound, the “decrease in SAM binding activity” value ([27]; U72C mutation) was 70 fold, the “decrease in SAM binding activity” value [28] was 5 fold and the “SAM binding” value [29] was “loss of SAM binding”. For the same compound, the “reduction of SAM binding” value [30] was “five”, the “SAM binding in vitro” value [31] was “loss of SAM binding” and the Kd [32] was 850 nM. For the same compound, the “correct positioning of the 30S ribosomal subunit on the SMK box mRNA” value [33] was “reduced” and the Kd [34] was 570 nM.
